Measured values reported in ChEMBL document CHEMBL1137363, “Discovering inhibitors of human sirtuin type 2: novel structural scaffolds” (J Med Chem, 2006).

These compounds were tested against T1, NAD-dependent protein deacetylase sirtuin-2 (Homo sapiens, UniProt Q8IXJ6) (assay: Inhibition of human recombinant SIRT2).
T1 sequence (Q8IXJ6 whole entry): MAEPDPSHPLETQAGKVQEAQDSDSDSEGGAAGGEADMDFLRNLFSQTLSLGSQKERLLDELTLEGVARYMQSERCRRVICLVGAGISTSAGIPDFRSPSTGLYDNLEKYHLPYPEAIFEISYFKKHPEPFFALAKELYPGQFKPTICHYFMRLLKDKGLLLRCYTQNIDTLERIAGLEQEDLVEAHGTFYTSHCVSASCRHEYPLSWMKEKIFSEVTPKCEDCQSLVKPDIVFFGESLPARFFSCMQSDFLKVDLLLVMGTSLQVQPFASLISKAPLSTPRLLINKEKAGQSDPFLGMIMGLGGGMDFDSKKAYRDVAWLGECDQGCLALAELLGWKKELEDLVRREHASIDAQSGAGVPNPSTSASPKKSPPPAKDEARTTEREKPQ

IC50 [µM]	Structure (SMILES)
136	CC1(C)CCC(C)(C)c2cc(-c3csc(C4CCN(Cc5ccc(N(CCC#N)CCC#N)cc5)CC4)n3)ccc21
91	OCc1cccc(/C=N/c2cc(/N=C/c3cccc(CO)c3O)cc(C(F)(F)F)c2)c1O
200	CCCCC(CC)COCCCNC(=O)CCC(C)(c1ccc(O)cc1)c1ccc(O)cc1 (stereo not drawn)
